Test results as given in ChEMBL document CHEMBL5291721, “A preclinical secondary pharmacology resource illuminates target-adverse drug reaction associations of marketed drugs” (Nat Commun, 2023).

Tests used:
[1] = biological target: T1, Peroxisome proliferator-activated receptor gamma (Homo sapiens, UniProt P37231); assay type: functional
T1 sequence (P37231 whole entry): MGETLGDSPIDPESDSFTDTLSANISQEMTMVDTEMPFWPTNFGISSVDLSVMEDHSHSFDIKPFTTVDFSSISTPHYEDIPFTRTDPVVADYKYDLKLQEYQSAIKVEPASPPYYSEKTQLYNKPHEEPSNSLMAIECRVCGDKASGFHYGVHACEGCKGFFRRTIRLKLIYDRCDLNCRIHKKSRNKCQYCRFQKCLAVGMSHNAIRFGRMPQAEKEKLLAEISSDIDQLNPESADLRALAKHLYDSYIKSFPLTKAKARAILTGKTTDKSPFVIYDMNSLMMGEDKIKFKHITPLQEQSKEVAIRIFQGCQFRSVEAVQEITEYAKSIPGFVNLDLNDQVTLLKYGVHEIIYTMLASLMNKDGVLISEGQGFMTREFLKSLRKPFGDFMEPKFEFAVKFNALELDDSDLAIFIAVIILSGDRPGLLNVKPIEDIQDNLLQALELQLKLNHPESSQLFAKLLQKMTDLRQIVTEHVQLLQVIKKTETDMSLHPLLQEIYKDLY

[2] = biological target: 5-hydroxytryptamine receptor 2B (Homo sapiens, UniProt P41595)
Sequence of 5-hydroxytryptamine receptor 2B (P41595 whole entry): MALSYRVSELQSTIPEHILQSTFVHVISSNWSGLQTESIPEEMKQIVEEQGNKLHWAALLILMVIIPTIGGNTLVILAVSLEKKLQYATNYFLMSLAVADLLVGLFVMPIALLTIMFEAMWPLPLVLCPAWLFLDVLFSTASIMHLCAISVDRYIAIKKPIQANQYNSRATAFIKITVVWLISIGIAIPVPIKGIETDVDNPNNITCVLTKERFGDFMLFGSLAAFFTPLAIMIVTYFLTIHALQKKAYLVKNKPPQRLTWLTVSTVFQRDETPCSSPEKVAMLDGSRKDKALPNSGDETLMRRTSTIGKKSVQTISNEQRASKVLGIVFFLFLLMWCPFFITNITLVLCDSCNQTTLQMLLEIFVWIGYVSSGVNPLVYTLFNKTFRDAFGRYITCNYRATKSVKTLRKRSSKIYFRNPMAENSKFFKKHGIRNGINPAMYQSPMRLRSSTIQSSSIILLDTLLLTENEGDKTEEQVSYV

D(1A) dopamine receptor [3] = biological target: T2, D(1A) dopamine receptor (Homo sapiens, UniProt P21728)
T2 sequence (P21728 whole entry): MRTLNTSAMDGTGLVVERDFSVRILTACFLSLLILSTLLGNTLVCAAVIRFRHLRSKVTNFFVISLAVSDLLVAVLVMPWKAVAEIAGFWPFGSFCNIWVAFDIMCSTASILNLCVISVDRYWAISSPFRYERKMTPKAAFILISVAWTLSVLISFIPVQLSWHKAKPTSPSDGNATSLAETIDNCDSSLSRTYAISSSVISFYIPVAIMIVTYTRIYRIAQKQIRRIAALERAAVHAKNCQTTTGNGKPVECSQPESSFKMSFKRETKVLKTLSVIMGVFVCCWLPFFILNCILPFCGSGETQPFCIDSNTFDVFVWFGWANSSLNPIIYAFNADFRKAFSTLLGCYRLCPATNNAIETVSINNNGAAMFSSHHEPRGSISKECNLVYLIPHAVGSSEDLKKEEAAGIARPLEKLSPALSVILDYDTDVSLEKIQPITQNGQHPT

[4] = biological target: Sodium channel protein type 5 subunit alpha (Homo sapiens, UniProt Q14524); assay type: functional, cell-based
Sequence of Sodium channel protein type 5 subunit alpha (Q14524 whole entry): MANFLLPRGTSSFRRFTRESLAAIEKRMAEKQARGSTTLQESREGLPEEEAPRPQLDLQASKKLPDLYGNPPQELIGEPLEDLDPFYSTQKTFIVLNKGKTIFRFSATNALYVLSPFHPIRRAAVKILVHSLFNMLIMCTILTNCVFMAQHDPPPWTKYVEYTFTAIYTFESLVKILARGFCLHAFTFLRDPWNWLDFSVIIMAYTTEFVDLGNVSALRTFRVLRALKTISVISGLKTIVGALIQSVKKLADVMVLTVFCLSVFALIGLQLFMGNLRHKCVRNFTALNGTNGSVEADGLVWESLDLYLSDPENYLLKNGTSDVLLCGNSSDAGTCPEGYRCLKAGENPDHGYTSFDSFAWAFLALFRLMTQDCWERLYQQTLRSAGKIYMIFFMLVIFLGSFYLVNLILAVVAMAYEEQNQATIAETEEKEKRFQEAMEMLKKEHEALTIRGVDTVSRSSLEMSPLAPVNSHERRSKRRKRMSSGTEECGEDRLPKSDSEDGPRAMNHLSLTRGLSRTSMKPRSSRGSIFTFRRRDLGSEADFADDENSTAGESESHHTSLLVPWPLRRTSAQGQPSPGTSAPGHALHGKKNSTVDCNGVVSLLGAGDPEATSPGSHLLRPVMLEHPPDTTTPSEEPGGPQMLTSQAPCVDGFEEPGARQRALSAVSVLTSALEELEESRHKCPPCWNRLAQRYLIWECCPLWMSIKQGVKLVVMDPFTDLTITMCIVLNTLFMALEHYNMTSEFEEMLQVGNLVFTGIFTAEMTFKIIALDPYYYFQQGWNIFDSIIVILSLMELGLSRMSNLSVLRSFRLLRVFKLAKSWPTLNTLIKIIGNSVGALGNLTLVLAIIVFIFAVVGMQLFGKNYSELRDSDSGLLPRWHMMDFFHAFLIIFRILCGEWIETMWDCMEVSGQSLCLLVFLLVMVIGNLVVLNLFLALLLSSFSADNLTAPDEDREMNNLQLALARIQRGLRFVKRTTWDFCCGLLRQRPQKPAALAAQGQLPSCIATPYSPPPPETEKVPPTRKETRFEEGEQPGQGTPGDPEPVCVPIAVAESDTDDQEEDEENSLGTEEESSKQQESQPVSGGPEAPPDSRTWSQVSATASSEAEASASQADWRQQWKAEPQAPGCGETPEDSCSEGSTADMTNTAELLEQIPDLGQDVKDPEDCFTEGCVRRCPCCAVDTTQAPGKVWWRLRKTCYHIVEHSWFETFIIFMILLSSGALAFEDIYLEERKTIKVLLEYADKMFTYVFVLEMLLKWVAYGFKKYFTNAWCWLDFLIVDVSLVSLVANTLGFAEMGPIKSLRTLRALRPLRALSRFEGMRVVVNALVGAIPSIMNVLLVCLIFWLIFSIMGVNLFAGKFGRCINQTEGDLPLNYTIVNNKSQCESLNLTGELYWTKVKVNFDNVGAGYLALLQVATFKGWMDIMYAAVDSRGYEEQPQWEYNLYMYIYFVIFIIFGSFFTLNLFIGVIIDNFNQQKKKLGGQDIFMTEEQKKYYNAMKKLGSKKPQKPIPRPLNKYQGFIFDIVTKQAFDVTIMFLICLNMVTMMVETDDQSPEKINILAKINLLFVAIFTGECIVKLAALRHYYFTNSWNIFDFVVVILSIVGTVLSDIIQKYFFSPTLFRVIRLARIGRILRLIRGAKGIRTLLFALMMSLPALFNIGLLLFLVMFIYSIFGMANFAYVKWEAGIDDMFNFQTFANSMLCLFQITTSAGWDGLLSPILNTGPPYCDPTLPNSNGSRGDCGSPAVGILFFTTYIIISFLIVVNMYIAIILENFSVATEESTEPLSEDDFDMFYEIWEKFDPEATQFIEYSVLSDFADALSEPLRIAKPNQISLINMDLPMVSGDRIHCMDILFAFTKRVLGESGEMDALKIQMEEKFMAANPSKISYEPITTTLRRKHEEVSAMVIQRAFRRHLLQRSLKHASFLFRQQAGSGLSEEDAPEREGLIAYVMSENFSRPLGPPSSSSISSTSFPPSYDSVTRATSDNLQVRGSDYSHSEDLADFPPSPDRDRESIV

[5] = biological target: T3, Alpha-2A adrenergic receptor (Homo sapiens, UniProt P08913)
T3 sequence (P08913 whole entry): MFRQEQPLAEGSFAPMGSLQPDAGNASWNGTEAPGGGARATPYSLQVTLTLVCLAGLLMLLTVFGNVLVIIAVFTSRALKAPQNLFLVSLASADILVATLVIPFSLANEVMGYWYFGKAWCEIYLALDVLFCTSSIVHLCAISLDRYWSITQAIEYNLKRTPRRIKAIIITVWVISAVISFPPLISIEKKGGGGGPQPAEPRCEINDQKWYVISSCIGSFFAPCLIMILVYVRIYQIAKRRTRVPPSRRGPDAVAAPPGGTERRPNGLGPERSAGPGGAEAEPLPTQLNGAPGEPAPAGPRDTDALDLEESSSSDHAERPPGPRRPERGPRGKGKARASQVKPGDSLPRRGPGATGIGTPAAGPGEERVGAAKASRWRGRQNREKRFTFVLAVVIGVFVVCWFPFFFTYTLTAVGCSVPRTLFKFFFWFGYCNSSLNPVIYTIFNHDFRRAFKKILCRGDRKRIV

[6] = biological target: Gamma-aminobutyric acid type B receptor subunit 1 (Homo sapiens, UniProt Q9UBS5)
Sequence of Gamma-aminobutyric acid type B receptor subunit 1 (Q9UBS5 whole entry): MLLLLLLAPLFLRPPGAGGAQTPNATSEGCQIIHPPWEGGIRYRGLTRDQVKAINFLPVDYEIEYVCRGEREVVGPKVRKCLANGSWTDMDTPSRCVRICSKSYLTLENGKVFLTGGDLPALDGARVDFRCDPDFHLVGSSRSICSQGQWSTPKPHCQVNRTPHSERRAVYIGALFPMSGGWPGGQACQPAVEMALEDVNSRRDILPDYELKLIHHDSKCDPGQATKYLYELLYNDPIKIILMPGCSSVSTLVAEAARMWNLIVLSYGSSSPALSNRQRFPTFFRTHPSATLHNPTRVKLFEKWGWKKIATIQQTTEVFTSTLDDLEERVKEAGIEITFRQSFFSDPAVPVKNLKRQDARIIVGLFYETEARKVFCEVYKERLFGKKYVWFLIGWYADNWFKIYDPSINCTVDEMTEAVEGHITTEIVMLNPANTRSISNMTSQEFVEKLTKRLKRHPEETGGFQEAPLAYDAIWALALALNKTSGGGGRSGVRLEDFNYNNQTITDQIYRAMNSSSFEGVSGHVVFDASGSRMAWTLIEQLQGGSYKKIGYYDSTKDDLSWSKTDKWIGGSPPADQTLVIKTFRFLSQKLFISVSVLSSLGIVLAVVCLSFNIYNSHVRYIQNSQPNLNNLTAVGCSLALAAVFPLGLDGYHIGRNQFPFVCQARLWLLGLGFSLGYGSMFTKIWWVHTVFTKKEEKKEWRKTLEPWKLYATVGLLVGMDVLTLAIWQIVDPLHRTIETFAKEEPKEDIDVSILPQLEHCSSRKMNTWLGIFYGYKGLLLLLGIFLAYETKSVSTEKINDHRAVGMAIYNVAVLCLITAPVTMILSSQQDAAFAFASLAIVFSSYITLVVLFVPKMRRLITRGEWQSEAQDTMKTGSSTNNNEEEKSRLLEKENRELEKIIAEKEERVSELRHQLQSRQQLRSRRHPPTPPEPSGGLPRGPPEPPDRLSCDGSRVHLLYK

Glucocorticoid receptor = biological target: T4, Glucocorticoid receptor (Homo sapiens, UniProt P04150); assay type: functional
T4 sequence (P04150 whole entry): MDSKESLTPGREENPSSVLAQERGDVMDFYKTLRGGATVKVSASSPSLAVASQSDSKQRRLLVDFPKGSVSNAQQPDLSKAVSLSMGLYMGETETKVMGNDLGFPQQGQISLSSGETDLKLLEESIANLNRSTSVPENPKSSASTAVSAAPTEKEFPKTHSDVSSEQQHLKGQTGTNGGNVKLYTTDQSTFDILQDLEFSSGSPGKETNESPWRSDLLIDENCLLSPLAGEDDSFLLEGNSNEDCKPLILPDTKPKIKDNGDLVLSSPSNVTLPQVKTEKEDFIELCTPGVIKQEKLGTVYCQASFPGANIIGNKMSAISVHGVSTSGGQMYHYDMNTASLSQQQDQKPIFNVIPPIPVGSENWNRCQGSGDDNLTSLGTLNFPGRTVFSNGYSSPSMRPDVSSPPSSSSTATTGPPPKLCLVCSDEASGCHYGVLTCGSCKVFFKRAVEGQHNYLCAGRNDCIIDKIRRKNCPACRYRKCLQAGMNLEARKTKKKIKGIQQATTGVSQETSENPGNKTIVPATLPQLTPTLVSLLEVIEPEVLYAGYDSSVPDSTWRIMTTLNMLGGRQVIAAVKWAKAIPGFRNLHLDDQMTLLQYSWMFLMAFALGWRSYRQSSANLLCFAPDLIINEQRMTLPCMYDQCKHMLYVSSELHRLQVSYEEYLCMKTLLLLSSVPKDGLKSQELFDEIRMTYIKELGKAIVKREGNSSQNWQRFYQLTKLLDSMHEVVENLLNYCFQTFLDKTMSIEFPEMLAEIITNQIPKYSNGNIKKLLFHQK

[7] = biological target: Synaptic vesicular amine transporter (Rattus norvegicus, UniProt Q01827); assay type: functional
Sequence of Synaptic vesicular amine transporter (Q01827 whole entry): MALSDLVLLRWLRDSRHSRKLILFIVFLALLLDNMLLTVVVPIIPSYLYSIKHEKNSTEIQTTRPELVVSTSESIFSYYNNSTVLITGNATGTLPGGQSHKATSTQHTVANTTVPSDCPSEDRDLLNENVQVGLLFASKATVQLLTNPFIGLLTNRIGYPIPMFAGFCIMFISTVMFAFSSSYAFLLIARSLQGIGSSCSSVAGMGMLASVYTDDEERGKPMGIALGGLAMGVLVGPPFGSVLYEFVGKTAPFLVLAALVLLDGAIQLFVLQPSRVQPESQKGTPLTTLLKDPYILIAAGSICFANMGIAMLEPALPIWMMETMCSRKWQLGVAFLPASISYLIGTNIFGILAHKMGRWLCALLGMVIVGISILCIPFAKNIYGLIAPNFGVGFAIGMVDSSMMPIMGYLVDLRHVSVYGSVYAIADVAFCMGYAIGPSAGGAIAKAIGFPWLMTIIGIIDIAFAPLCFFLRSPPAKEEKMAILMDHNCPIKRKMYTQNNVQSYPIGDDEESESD

D(1A) dopamine receptor [8] = biological target: T2, D(1A) dopamine receptor; remark: listed apart in the source
Note: assay procedure not described here.

| AC50 [1] [µM] | SMILES | AC50 [2] [µM] | AC50 (D(1A) dopamine receptor [3]) [µM] | AC50 [5] [µM] | further results |
| --- | --- | --- | --- | --- | --- |
| 18 | CCC(=O)O[C@]1(C(=O)CCl)[C@@H](C)C[C@H]2[C@@H]3CCC4=CC(=O)C=C[C@]4(C)[C@@]3(F)[C@@H](O)C[C@@]21C [CLOBETASOL PROPIONATE] | – | – | – | – |
| > 30 | CC1(C)S[C@@H]2[C@H](NC(=O)C(C(=O)O)c3ccccc3)C(=O)N2[C@H]1C(=O)O (some centres undefined) [CARBENICILLIN] | – | – | – | – |
| > 30 | CNC[C@H](O)c1ccc(O)c(O)c1 [EPINEPHRINE] | – | – | – | – |
| – | O=C(O)c1ccccc1 [BENZOIC ACID] | – | – | – | AC50 [7]: 18 µM; AC50 [4]: > 50 µM |
| – | C#C[C@]1(O)C=C[C@H]2[C@@H]3CCC4=CC(=O)CC[C@@H]4[C@H]3CC[C@@]21CC [GESTODENE] | – | – | – | AC50 (D(1A) dopamine receptor [8]): > 30 µM |
| 18 | CCOc1nc2cccc(C(=O)O)c2n1Cc1ccc(-c2ccccc2-c2nnn[nH]2)cc1 | > 10 | > 10 | > 10 | AC50 [4]: > 50 µM; AC50 [6]: > 10 µM; AC50 (Glucocorticoid receptor): > 30 µM |
| – | Cc1nc(Nc2ncc(C(=O)Nc3c(C)cccc3Cl)s2)cc(N2CCN(CCO)CC2)n1 [DASATINIB] | 7.6 | > 10 | > 10 | AC50 [6]: > 10 µM |
| – | Nc1c(CC(=O)O)cccc1C(=O)c1ccc(Br)cc1 [BROMFENAC] | – | – | – | AC50 (D(1A) dopamine receptor [8]): > 30 µM |
| – | Cc1ccc(C)c(OCCCC(C)(C)C(=O)O)c1 [GEMFIBROZIL] | > 10 | > 10 | > 10 | AC50 [6]: > 10 µM |
| – | COc1cc(C(=O)NS(=O)(=O)c2ccccc2C)ccc1Cc1cn(C)c2ccc(NC(=O)OC3CCCC3)cc12 [ZAFIRLUKAST] | – | – | – | AC50 (Glucocorticoid receptor): > 30 µM |
| – | CN1Cc2c(N)cccc2C(c2ccccc2)C1 (centres undefined) [NOMIFENSINE] | – | – | – | AC50 [7]: 28.8 µM |
| – | CC(C)NC(=N)NC(=N)Nc1ccc(Cl)c(Cl)c1 [CHLORPROGUANIL] | – | – | – | AC50 (D(1A) dopamine receptor [8]): > 30 µM |
| – | CC(CN1c2ccccc2Sc2ccccc21)N(C)C (centres undefined) [PROMETHAZINE] | 0.0679 | 3.38 | – | AC50 (D(1A) dopamine receptor [8]): > 30 µM |
| – | CC[C@H](C)C(=O)O[C@H]1C[C@@H](C)C=C2C=C[C@H](C)[C@H](CC[C@@H]3C[C@@H](O)CC(=O)O3)[C@H]21 [LOVASTATIN] | > 10 | > 10 | > 10 | AC50 [4]: > 30 µM |
| – | CC(C)C[C@H](NC(=O)[C@@H](O)[C@H](N)Cc1ccccc1)C(=O)O [UBENIMEX] | – | – | – | AC50 (D(1A) dopamine receptor [8]): > 30 µM |

| SMILES | AC50 [1] [µM] | AC50 [2] [µM] | AC50 (D(1A) dopamine receptor [3]) [µM] | AC50 [5] [µM] | further results |
| --- | --- | --- | --- | --- | --- |
| CCCc1nc2c(C)cc(-c3nc4ccccc4n3C)cc2n1Cc1ccc(-c2ccccc2C(=O)O)cc1 | 19 | > 10 | > 10 | > 30 | AC50 [4]: 27.3 µM; AC50 [6]: > 10 µM; AC50 (Glucocorticoid receptor): > 30 µM |
| COc1cc(C(C)=O)ccc1OCCCN1CCC(c2noc3cc(F)ccc23)CC1 [ILOPERIDONE] | > 30 | – | 0.0684 | 0.176 | AC50 (Glucocorticoid receptor): > 30 µM |
